Data: patent US6531477B1, “6-substituted pyrazolo [3,4-d] pyrimidin-4-ones useful as cyclin dependent kinase inhibitors” (DuPont Pharmaceuticals Company, priority 1998, dated 2003)

melting point | SMILES
227 to 228 °C | COc1ccc(Cc2nc3c(c(SC)nn3-c3ccccc3Cl)c(=O)[nH]2)cc1 [Example 150]
178 to 180 °C | CCc1nn(-c2ccccc2Br)c2nc(Cc3cccc(OC)c3)[nH]c(=O)c12 [Example 151]
246 to 249 °C | CCc1nn(-c2ccccc2Br)c2nc(Cc3ccc(N)cc3)[nH]c(=O)c12 [Example 152]
199 to 201 °C | CCc1nn(-c2ccccc2Br)c2nc(Cc3cccc(O)c3)[nH]c(=O)c12 [Example 153]
193 to 194 °C | CCc1nn(-c2ccccc2F)c2nc(Cc3cccc(OC)c3)[nH]c(=O)c12 [Example 154]
235 to 237 °C | CCc1nn(-c2ccccc2F)c2nc(Cc3cccc(O)c3)[nH]c(=O)c12 [Example 155]
231 to 233 °C | CCc1nn(-c2ccccc2F)c2nc(Cc3ccc(N)cc3)[nH]c(=O)c12 [Example 157]
192 to 193 °C | CCc1nn(-c2c(Cl)cc(C(F)(F)F)cc2Cl)c2nc(Cc3cccc(OC)c3)[nH]c(=O)c12 [Example 166]
240 to 241 °C | CCc1nn(-c2c(Cl)cc(C(F)(F)F)cc2Cl)c2nc(Cc3ccc(OC)cc3)[nH]c(=O)c12 [Example 168]
284 to 286 °C | CCc1nn(-c2c(Cl)cc(Br)cc2Cl)c2nc(Cc3ccc(O)cc3)[nH]c(=O)c12 [Example 169]
242 to 244 °C | CCc1nn(-c2c(Cl)cc(Br)cc2Cl)c2nc(Cc3cccc(O)c3)[nH]c(=O)c12 [Example 170]
262 to 263 °C | CCc1nn(-c2c(Cl)cccc2Cl)c2nc(Cc3ccc(O)cc3)[nH]c(=O)c12 [Example 171]
242 to 244 °C | CCc1nn(-c2c(Cl)cccc2Cl)c2nc(Cc3cccc(O)c3)[nH]c(=O)c12 [Example 173]
232 to 233 °C | CCc1nn(-c2c(Cl)cc(Br)cc2Cl)c2nc(Cc3cccc(OC)c3)[nH]c(=O)c12 [Example 174]
252 to 253 °C | CCc1nn(-c2c(Cl)cc(Br)cc2Cl)c2nc(Cc3ccc(OC)cc3)[nH]c(=O)c12 [Example 175]
220 to 222 °C | CCc1nn(-c2c(Cl)cccc2Cl)c2nc(Cc3ccc(OC)cc3)[nH]c(=O)c12 [Example 176]
186 to 187 °C | CCc1nn(-c2c(Cl)cccc2Cl)c2nc(Cc3cccc(OC)c3)[nH]c(=O)c12 [Example 177]
267 to 268 °C | CSc1nn(-c2c(F)cccc2Cl)c2nc(Cc3ccc(O)cc3)[nH]c(=O)c12 [Example 178]
252 to 253 °C | CSc1nn(-c2c(F)cccc2Cl)c2nc(Cc3cccc(O)c3)[nH]c(=O)c12 [Example 179]
255 to 256 °C | CSc1nn(-c2c(Cl)cc(Br)cc2Cl)c2nc(Cc3ccc(O)cc3)[nH]c(=O)c12 [Example 180]
193 to 194 °C | COc1ccc(Cc2nc3c(c(SC)nn3-c3c(F)cccc3Cl)c(=O)[nH]2)cc1 [Example 181]
244 to 245 °C | COc1cccc(Cc2nc3c(c(SC)nn3-c3c(F)cccc3Cl)c(=O)[nH]2)c1 [Example 182]

melting point | SMILES
267 to 268 °C | COc1ccc(Cc2nc3c(c(SC)nn3-c3c(Cl)cc(Br)cc3Cl)c(=O)[nH]2)cc1 [Example 183]
255 to 256 °C | CCc1nn(-c2c(C)cccc2Cl)c2nc(Cc3ccc(O)cc3)[nH]c(=O)c12 [Example 184]
252 to 255 °C | COc1ccc(Cc2nc3c(c(SC)nn3-c3c(C)cc(Cl)cc3Cl)c(=O)[nH]2)cc1 [Example 185]
233 to 235 °C | COc1ccc(Cc2nc3c(c(SC)nn3-c3c(C)cccc3Cl)c(=O)[nH]2)cc1 [Example 186]
245 to 246 °C | CCc1nn(-c2c(C)cc(Cl)cc2Cl)c2nc(Cc3ccc(OC)cc3)[nH]c(=O)c12 [Example 187]
277 to 279 °C | CSc1nn(-c2c(C)cc(Cl)cc2Cl)c2nc(Cc3ccc(O)cc3)[nH]c(=O)c12 [Example 188]
264 to 266 °C | CSc1nn(-c2c(C)cccc2Cl)c2nc(Cc3ccc(O)cc3)[nH]c(=O)c12 [Example 190]
220 to 221 °C | CCc1nn(-c2c(C)cccc2Cl)c2nc(Cc3ccc(OC)cc3)[nH]c(=O)c12 [Example 191]
257 to 259 °C | CCc1nn(-c2c(C)cccc2Cl)c2nc(Cc3ccc(O)cc3)[nH]c(=O)c12 [Example 192]
188 to 190 °C | CCc1nn(-c2c(C)cccc2Cl)c2nc(Cc3cccc(OC)c3)[nH]c(=O)c12 [Example 193]
292 to 294 °C | CCc1nn(-c2c(Cl)cc(C(=O)O)cc2Cl)c2nc(Cc3ccc(OC)cc3)[nH]c(=O)c12 [Example 195]
308 to 310 °C | CCc1nn(-c2c(Cl)cc(C(=O)O)cc2Cl)c2nc(Cc3ccc(O)cc3)[nH]c(=O)c12 [Example 196]
280 to 282 °C | CCc1nn(-c2c(Cl)cc(C(=O)O)cc2Cl)c2nc(Cc3cccc(O)c3)[nH]c(=O)c12 [Example 198]
205 to 206 °C | Cc1cccc(Cl)c1-n1nc(C(C)C)c2c(=O)[nH]c(Cc3ccc(N)cc3)nc21 [Example 199]
278 to 280 °C | CCc1nn(-c2c(Cl)cc(C(=O)NC)cc2Cl)c2nc(Cc3ccc(OC)cc3)[nH]c(=O)c12 [Example 201]
226 to 228 °C | CCc1nn(-c2c(Cl)cc(C(=O)O)cc2Cl)c2nc(Cc3ccc(N)cc3)[nH]c(=O)c12 [Example 205]
227 to 229 °C | COc1cccc(Cc2nc3c(c(CO)nn3-c3c(Cl)cc(Cl)cc3Cl)c(=O)[nH]2)c1 [Example 208]
212 to 213 °C | Cc1cc(Cl)cc(Cl)c1-n1nc(C(C)C)c2c(=O)[nH]c(Cc3ccc(N)cc3)nc21 [Example 217]
244 to 245 °C | COc1cccc(Cc2nc3c(c(C(C)C)nn3-c3c(Cl)cc(S(N)(=O)=O)cc3Cl)c(=O)[nH]2)c1 [Example 225]
227 to 229 °C | CCc1nn(-c2cc(C(F)(F)F)ccc2Cl)c2nc(Cc3cccc(O)c3)[nH]c(=O)c12 [Example 227]
226 to 228 °C | CCNC(=O)c1cc(Cl)c(-n2nc(CC)c3c(=O)[nH]c(Cc4cccc(OC)c4)nc32)c(Cl)c1 [Example 236]
222 to 224 °C | CCc1nn(-c2c(Cl)cc(C(=O)NC(C)(C)C)cc2Cl)c2nc(Cc3cccc(OC)c3)[nH]c(=O)c12 [Example 238]
